Experimental findings from patent US20250382280A1, “PYRAZOLE DERIVATIVES FOR THE INHIBITION OF PHAGOCYTOSIS” (Canadian Blood Services, priority 2022, published 2025) are described below.

Structures are written as SMILES. Read-outs that look alike come from different tables or passages of the source.

The assay deals with phagocytosis of anti-D-opsonized Rh(D+) red cells by monocytes. Briefly: monocyte monolayer assay (MMA), in vitro phagocytosis assay. It counts as cell-based, human. More on the design: key to Phagocytic index (PI): number of phagocytosed RBCs per 100 monocytes. The conditions noted are these: for Phagocytic index (PI): PI = (# of phagocytic red blood cells)/(300 monocytes) * 100; for IC50: 0.5-100 μM, read-out: IC50 for inhibition of phagocytosis. The protocol: The MMA to screen compounds for their ability to inhibit phagocytosis was performed as previously described (Purohit, M. K. et al., Bioorg. Med. Chem. Lett. 2013; 23:2324-7; and Purohit, M. K. et al., Bioorg. Med. Chem. 2014; 22:2739-52.). Briefly, Mononuclear cells (PBMCs) were layered onto chamber slides and monocytes purified by adherence after 1 hr at 37° C. with 5% CO2. Drugs were solubilized in 100% DMSO and then diluted in Roswell Park Memorial Institute (RPMI) to the final concentration of 5 μM, as previously reported (8,9). Corresponding dimethyl sulfoxide (DMSO) volumes in RPMI medium were used as a control. After one hour, indicator Rh-positive red cells opsonized with anti-RhD were added to the chamber slides and then further incubated for 2 hours before fixing and counting phagocytosed red blood cells (RBCs) using phase-contrast microscopy. As a positive control for inhibition, Intravenous immunoglobulin (IVIg) was used, known to inhibit phagocytosis due to blocking of FcγRs. The phagocytosis index (PI) was determined as the number of phagocytosed RBCs in 100 monocytes. The percent inhibition of phagocytosis was determined by comparing the PI in each treated sample to the PI in the untreated sample, which was determined by normalizing the PI concentration in each treated sample (phagocytosis of opsonized RBCs with vehicle only, representing 100 percent phagocytosis.
Concentrations included 100 μM, 50 μM, 25 μM, 10 μM, 5 μM, 2.5 μM, 1 μM, and 0.5 μM.
The 80 selected pyrazole core compounds were screened using a concentration of 5 μM in the in vitro phagocytosis assay, referred to as the monocyte monolayer assay (MMA). Compounds were compared to a standard intravenous immunoglobulin (IVIg) at a concentration of 1 mg/mL.

[1] abbreviates: Homo sapiens, Monocyte, 5 μM compound, screening of the 80 compounds, read-out: Average inhibition (% ± standard deviation).
Setting [2] is: Homo sapiens, Monocyte, 5 μM, anti-D-opsonized Rh(D+) red cells, read-out: Inhibition percentage.
[3] abbreviates: Homo sapiens, Monocyte, dose-inhibitory response.

Regarding `CN(C)C(=O)c1cn(-c2ccccc2)nc1-c1ccccc1` [KB-132], the inhibition at 5 µM under setting [1] is -9 ± 3.47%.
On to `CCOC(=O)C1=NNC2C(=O)N(CC)C(=O)C12` (centres unmarked) [KB-133], for which the inhibition at 5 µM under setting [1] was 24 ± 8.98%.
The same measure, in the same setting: the same measure for `COC(=O)c1n[nH]c(N)c1Cl` [KB-134]: 9 ± 6.99%; for `Cc1cc(-c2ccco2)n(-c2ccccc2)n1` [KB-135]: 18 ± 2.7%; for `Cc1nn(-c2ccccc2)c2sc(C(=O)NCCO)cc12` [KB-136]: -4 ± 1.82%.
Same read-out and setting: the value for `Cc1cc(C)n(S(=O)(=O)c2ccccc2)n1` [KB-137] was 10 ± 1.21%.
On the same count and under the same terms, the value for `Cc1n[nH]c(C)c1Sc1ccc(Cl)cc1` [KB-138] was 38 ± 6.56%; that for `Cc1cccc(OCCCc2c(C)n[nH]c2C)c1C` [KB-139] was 6 ± 3.48%; that for `CCOc1ccc(NC(=O)c2cnn(-c3ccccc3)c2NC(=O)c2ccco2)cc1` [KB-140] was 31 ± 7.84%.
With `Cc1cc(C)n(C(=O)COc2ccccc2C)n1` [KB-141], under setting [1], the inhibition at 5 µM was 36 ± 9.37%.
The same measure, in the same setting: the value for `Cc1cc(C)n(C(=O)c2ccoc2C)n1` [KB-142] was 11 ± 6.51%.
In the case of `Cc1sc2ncnc(-n3ncc(C#N)c3N)c2c1C` [KB-143], the inhibition at 5 µM under setting [1] was determined as 10 ± 6.87%.
With `Cc1c(NC(=O)C2CCN(S(=O)(=O)c3cccs3)CC2)c(=O)n(-c2ccccc2)n1C` [KB-145], the inhibition at 5 µM under setting [1] is 4 ± 0.06%.
Take `CCn1cc(Br)c(C(=O)Nc2cc(Cl)ccc2OC)n1` [KB-146]: the inhibition at 5 µM under setting [1] turned out to be 10 ± 9.56%.
As to `Cn1ncc(Br)c1C(=O)Oc1ccccc1Cl` [KB-147], the inhibition at 5 µM under setting [1] worked out at 0%.
Still for that read-out and setting: the same measure for `Cn1cc(Cl)c(C(=O)Nc2ccc(F)cc2F)n1` [KB-148]: 28 ± 9.62%.
Still for that read-out and setting: the same measure for `Cc1c(Nc2ncnc3c2cnn3-c2ccccc2)c(=O)n(-c2ccccc2)n1C` [KB-149]: 0%.
In the case of `CCn1ncc(Br)c1C(=O)NC1CCCCC1` [KB-150], under setting [1], the inhibition at 5 µM was 24 ± 8.58%.
The same measure, in the same setting: the same measure for `COc1ccc(-c2nc(-n3c(C)c(C(C)=O)c(C(C)=O)c3C)sc2C)cc1OC` [KB-152]: 2 ± 8.84%; for `Cc1cc2c(cc1C)NC(c1c(C)n(C)n(-c3ccccc3)c1=O)C1=C(CC(C)(C)CC1=O)N2` (centres unmarked) [KB-153]: 8 ± 8.3%; for `COc1ccc(C2=NN(C(C)=O)C(c3ccco3)C2)cc1OC` (centres unmarked) [KB-154]: 2 ± 5.19%.
Still for that read-out and setting: the same measure for `CCc1ccc(C2CC(c3ccccc3)=NN2S(C)(=O)=O)cc1` (centres unmarked) [KB-155]: 8 ± 9.35%; for `CCOC(=O)c1c(N)nn(C(=O)CC)c1-c1ccccc1` [KB-156]: 2 ± 6.64%; for `O=C1NC(=O)C2C1C(c1ccc(O)cc1)NN2Cc1ccccc1` (centres unmarked) [KB-157]: 3 ± 9.96%.
In the case of `COC(=O)N1N=C(C2CCCCC2)CC1(O)C(F)(F)F` (centres unmarked) [KB-158], the inhibition at 5 µM under setting [1] came out at 0%.
Still for that read-out and setting: the value for `CCOC(=O)c1cnn(-c2ccccc2)c1NC(=O)Cc1cccc(OC)c1` [KB-159] was 15 ± 8.4%; that for `Cn1ncc(I)c1C(=O)Nc1cccc2ccccc12` [KB-160] was -2 ± 5.32%.
Consider `CC(=O)N1N=C(c2cccs2)CC1c1ccccc1C` (centres unmarked) [KB-161], for which, under setting [1], the inhibition at 5 µM turned out to be 7 ± 8.43%.
As to `CCOC(=O)c1cnn(-c2nc3sc4c(c3c(=O)[nH]2)CCCC4)c1N` [KB-162], the inhibition at 5 µM under setting [1] is -37 ± 2.59%.
Still for that read-out and setting: the same measure for `Cc1ccc2nc(-c3ccc4c(c3)OCO4)cc(C(=O)Nc3c(C)n(C)n(-c4ccccc4)c3=O)c2c1` [KB-163]: -30 ± 1.77%; for `N#CCCn1cc(C(N)=O)c(-c2cccc(Cl)c2)n1` [KB-164]: -3 ± 9.7%.
On the same count and under the same terms, the same measure for `N#CCCn1cc(C(=O)Nc2nccs2)c(-c2ccc3c(c2)OCCO3)n1` [KB-165]: 33 ± 5.3%; for `COc1ccc(NC(=O)c2cn(CCC#N)nc2-c2cccs2)cc1` [KB-166]: 17 ± 3.91%.
For `Cc1[nH]n(-c2ccccc2)c(=O)c1C1(C(F)(F)F)C(=O)Nc2c1c(=O)[nH]c(=O)n2Cc1ccccc1` (centres unmarked) [KB-167], the “Phagocytic index (PI)” value (5 μM) is given as 14. Besides, the inhibition at 5 µM is, setting by setting: under setting [1], 53 ± 4.18%; under setting [2], 53%.
For the compound `Cc1cc(NC(=O)c2cnn3c2NC(c2ccco2)CC3C(F)(F)F)n(-c2ccccc2)n1` (centres unmarked) [KB-168], the inhibition at 5 µM under setting [1] worked out at 23 ± 3.86%.
As to `Cc1c(NC(=O)c2ccn3c(C(F)(F)F)cc(-c4ccccc4)nc23)c(=O)n(-c2ccccc2)n1C` [KB-169], the inhibition at 5 µM under setting [1] stood at 0%.
On the same count and under the same terms, the value for `CSc1nc2ccc(S(=O)(=O)Nc3c(C)n(C)n(-c4ccccc4)c3=O)cc2s1` [KB-170] was -13 ± 4.31%.
As to `CCOC(=O)c1cnn(-c2ccccc2)c1NC(=O)CSc1nc(SC)ns1` [KB-171], the inhibition at 5 µM under setting [1] was found to be 7 ± 0.39%.
Same read-out and setting: the value for `COc1ccc(S(=O)(=O)n2cccn2)cc1C(C)(C)C` [KB-173] was -8 ± 8.88%.
As to `Cc1nn(C(=O)N(C)C)c(C)c1CN1C(=O)c2ccccc2C1=O` [KB-174], under setting [1], the inhibition at 5 µM was 39 ± 9.53%.
Turning to `Cc1coc(C)c1C1=NN(S(C)(=O)=O)C(c2cccs2)C1` (centres unmarked) [KB-175], the “Phagocytic index (PI)” value (5 μM) is listed as 15. In addition, the inhibition at 5 µM is, setting by setting: under setting [1], 50 ± 1.45%; under setting [2], 50%.
Turning to `COc1cc(S(=O)(=O)n2cccn2)c(OC)cc1Cl` [KB-176], the inhibition at 5 µM under setting [1] was -10 ± 7.06%.
The same measure, in the same setting: the value for `CCc1cccc(NS(=O)(=O)c2cnn(CC)c2C)c1` [KB-177] was 4 ± 9.76%.
Consider `COc1ccc(CNC(=O)c2c(Cl)cnn2C)cc1OC` [KB-178], for which the “Phagocytic index (PI)” value (5 μM) was 29. Besides, the inhibition at 5 µM is 53 ± 5.11% under setting [1] and 53% under setting [2].
In the same order, the values of `CCn1cc(S(=O)(=O)NCCc2ccc(OC)c(OC)c2)cn1` [KB-179] are 14, 53 ± 1.18% and 53%.
In the case of `Cc1nn(C)cc1S(=O)(=O)NCc1ccccc1Cl` [KB-180], the inhibition at 5 µM under setting [1] is -42 ± 8.81%.
Take `CCOC(=O)c1c(C)nn(-c2nc(C)cc(C)n2)c1N` [KB-181]: the “Phagocytic index (PI)” value (5 μM) amounted to 37. Further, the inhibition at 5 µM is -11 ± 10.3% under setting [1] and 45% under setting [2].
For `Cn1ccc(C(=O)Nc2ccc3c(c2)OCCO3)n1` [KB-182] the same measures were 28, 55 ± 3.65% and 55%.
Consider `Cc1cc(=O)n(CCN2CCOCC2)c2c1c(C)nn2-c1ccccc1` [KB-183], for which, under setting [1], the inhibition at 5 µM is -28 ± 9.96%.
`CCOC(=O)c1cnn(C)c1NC(=O)C(CC)Sc1cc(C)ncn1` (centres unmarked) [KB-184]: under setting [1], the inhibition at 5 µM amounted to 7 ± 2.92%.
Still for that read-out and setting: the value for `COc1ccc(-c2cc(C(=O)O)nn2C2CCS(=O)(=O)C2)cc1` (centres unmarked) [KB-185] was -3 ± 3.6%.
As to `Cc1c(NC(=O)CSc2nc3c(c(=O)[nH]2)CCC3)c(=O)n(-c2ccccc2)n1C` [KB-186], the “Phagocytic index (PI)” value (5 μM) is 28. The inhibition at 5 µM by setting is: under setting [1], 55 ± 8.43%; under setting [2], 55%.
On to `COc1ccccc1-n1nc(C(C)=O)c(C(C)=O)c1C` [KB-187], for which the inhibition at 5 µM under setting [1] was -16 ± 9.33%.
In the case of `CC(=O)n1nc(C)c(S(=O)(=O)N2CCCC2)c1C` [KB-188], under setting [1], the inhibition at 5 µM is -26 ± 7.94%.
For the compound `Cc1nn(C)c(C)c1-c1cc(C(=O)O)[nH]n1` [KB-189], the “Phagocytic index (PI)” value (5 μM) was 30. Besides, the inhibition at 5 µM by setting is: under setting [1], 52 ± 4.75%; under setting [2], 52%.
For `Cc1nn(-c2ccc3nnc(C)n3n2)c2c1C(c1cccs1)CC(=O)N2` (centres unmarked) [KB-190] the same measures were 27, 56 ± 1.24% and 56%.
For `O=c1cc(CSc2nc3ccccc3s2)[nH]c2[nH]n(-c3ccccc3)c(=O)c12` [KB-191], the inhibition at 5 µM under setting [1] is -23 ± 7.85%.
Same read-out and setting: the same measure for `Cn1ncc(Br)c1C(=O)N1CCCC1c1ccc(F)cc1` (centres unmarked) [KB-192]: -29 ± 9.54%.
For the compound `COc1cc(-c2cc[nH]n2)cc(OC)c1OC` [KB-194], under setting [1], the inhibition at 5 µM turned out to be 39 ± 4.96%.
Turning to `COc1cccc(-c2cc(C(=O)Nc3cc(C)nn3-c3ccccc3)on2)c1` [KB-195], the inhibition at 5 µM under setting [1] worked out at 25 ± 6.36%.
With `Cc1ccccc1C1CCCN1C(=O)Cn1nc(C(F)(F)F)cc1C` (centres unmarked) [KB-196], under setting [1], the inhibition at 5 µM was found to be 24 ± 5.76%.
The same measure, in the same setting: the same measure for `Cc1c(S(=O)(=O)N2CCCC2c2ccccc2Cl)cnn1C(F)F` (centres unmarked) [KB-197]: 45 ± 4.97%.
In the case of `CCn1nccc1C1CCCN1S(=O)(=O)c1cc(C)c(C)cc1C` (centres unmarked) [KB-198], the “Phagocytic index (PI)” value (5 μM) is on record as 9. Also, under setting [3], the half-maximal inhibitory concentration (IC50) was determined as 8.43 µM and the EC50 is over 10 µM. In addition, the inhibition at 5 µM under setting [1] is 75 ± 4.76%. Besides, under setting [2], the inhibition at 5 µM was 75%.
For `CCn1nccc1C1CCCN1S(=O)(=O)c1cc(C)ccc1C` (centres unmarked) [KB-198a], the IC50 under setting [3] stood at 227 µM.
Turning to `CCOC(=O)c1cnn(-c2ncnc3c2cnn3-c2ccc(F)cc2)c1N` [KB-199], the “Phagocytic index (PI)” value (5 μM) is 40. Moreover, the inhibition at 5 µM by setting is: under setting [1], 40 ± 5.46%; under setting [2], 40%.

In general, inhibition refers to the change of the read-out against control, counted positive when it falls. One may read the IC50 as the point on the concentration scale where inhibition reaches its midpoint. A word on the EC50: it is the midpoint of the concentration-response curve.
